From ChEMBL document CHEMBL5325418, “Studies on diketopiperazine and dipeptide analogs as opioid receptor ligands” (Eur J Med Chem, 2023)
Calls of active or inactive are those of the source. No cut-off for these calls is given here. Square brackets hold non-standard residues; d marks the D form. Peptide text beside a SMILES is read from it. * marks the point of attachment. ξ: configuration not given here. ξPhe(2-I) = NC(Cc1ccccc1I)C(=O)O; Nphe = O=C(O)CNCc1ccccc1; Boc = CC(C)(C)OC(=O)*

How the values were obtained:
[1] = target: Mu-type opioid receptor (Homo sapiens, UniProt P35372); experiment: Displacement of [3H]DAMGO from human MOR expressed in CHO cell membranes assessed as inhibition constant incubated for 60 mins by microbeta 2 scintillation counting method; parameters: species or system Cell membrane
Sequence of Mu-type opioid receptor (P35372 whole entry): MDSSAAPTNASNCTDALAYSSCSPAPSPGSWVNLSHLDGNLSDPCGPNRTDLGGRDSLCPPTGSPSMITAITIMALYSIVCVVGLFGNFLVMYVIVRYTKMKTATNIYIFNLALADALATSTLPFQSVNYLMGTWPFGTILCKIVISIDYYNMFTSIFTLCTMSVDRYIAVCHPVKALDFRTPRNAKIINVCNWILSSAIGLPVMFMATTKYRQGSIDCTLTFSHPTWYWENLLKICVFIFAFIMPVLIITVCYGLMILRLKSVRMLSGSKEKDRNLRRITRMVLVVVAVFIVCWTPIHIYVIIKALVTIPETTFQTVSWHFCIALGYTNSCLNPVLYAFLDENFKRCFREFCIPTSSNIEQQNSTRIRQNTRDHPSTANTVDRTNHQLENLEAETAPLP

[2] = target: Kappa-type opioid receptor (Homo sapiens, UniProt P41145); experiment: Displacement of [3H]U69593 from human KOR expressed in HEK cell membranes assessed as inhibition constant incubated for 60 mins by microbeta 2 scintillation counting method; parameters: species or system Cell membrane
Sequence of Kappa-type opioid receptor (P41145 whole entry): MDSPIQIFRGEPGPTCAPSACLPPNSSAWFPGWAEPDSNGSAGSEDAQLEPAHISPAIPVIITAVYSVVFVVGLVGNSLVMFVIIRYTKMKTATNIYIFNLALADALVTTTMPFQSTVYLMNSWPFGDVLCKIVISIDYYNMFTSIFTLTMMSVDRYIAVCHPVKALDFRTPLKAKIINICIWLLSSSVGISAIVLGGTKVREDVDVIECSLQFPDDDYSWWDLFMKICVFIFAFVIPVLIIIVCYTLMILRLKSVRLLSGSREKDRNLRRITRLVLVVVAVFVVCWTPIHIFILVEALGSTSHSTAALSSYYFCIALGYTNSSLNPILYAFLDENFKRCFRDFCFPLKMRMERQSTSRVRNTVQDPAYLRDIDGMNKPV

[3] = target: Delta-type opioid receptor (Homo sapiens, UniProt P41143); experiment: Displacement of [3H]DADLE from human DOR expressed in CHO cell membranes assessed as inhibition constant incubated for 60 mins by microbeta 2 scintillation counting method; parameters: species or system Cell membrane
Sequence of Delta-type opioid receptor (P41143 whole entry): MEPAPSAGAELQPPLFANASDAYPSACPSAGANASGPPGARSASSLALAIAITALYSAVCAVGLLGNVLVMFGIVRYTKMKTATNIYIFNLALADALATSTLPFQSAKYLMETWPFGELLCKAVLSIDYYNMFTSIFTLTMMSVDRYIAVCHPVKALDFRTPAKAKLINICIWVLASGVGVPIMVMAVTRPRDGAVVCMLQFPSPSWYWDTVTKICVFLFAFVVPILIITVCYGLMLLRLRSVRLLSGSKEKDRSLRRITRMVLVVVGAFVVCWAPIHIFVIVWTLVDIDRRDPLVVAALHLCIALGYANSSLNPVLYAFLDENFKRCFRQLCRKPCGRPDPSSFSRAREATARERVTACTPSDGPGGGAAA

[4] = tested on: BEND3; experiment: Apparent permeability coefficient of the compound across blood brain barrier in mouse BEND3 cells at 10 ug/ml measured upto 120 mins by LC-MS/MS analysis; type: functional, cell-based; settings: dose 10.0 µg/ml
[5] = species on record: Homo sapiens; experiment: Selectivity ratio of Ki for displacement of [3H]DAMGO from human MOR expressed in CHO cell membranes to Ki for displacement of [3H]U69593 from human KOR expressed in HEK cell membranes
[6] = species on record: Homo sapiens; experiment: Selectivity ratio of Ki for displacement of [3H]DADLE from human DOR expressed in CHO cell membranes to Ki for displacement of [3H]U69593 from human KOR expressed in HEK cell membranes
[7] = Metabolic stability in Sprague-Dawley rat liver microsomes assessed as intrinsic clearance at 100 uM measured upto 24 hrs in presence of NADPH by LC-MS/MS analysis; type: ADME, Microsome
[8] = Metabolic stability in CD-1 mouse plasma assessed as half life at 100 uM measured upto 24 hrs by LC-MS/MS analysis; type: ADME, cell-free
[9] = Plasma protein binding in dog assessed as bound fraction at 1 uM by LC-MS/MS analysis; type: ADME, cell-free, Canis lupus familiaris
[10] = Metabolic stability in Sprague-Dawley rat plasma assessed as half life at 100 uM measured upto 24 hrs by LC-MS/MS analysis; type: ADME, cell-free
[11] = Metabolic stability in Beagle dog plasma assessed as half life at 100 uM measured upto 24 hrs by LC-MS/MS analysis; type: ADME, cell-free, Canis lupus familiaris; settings: 24 h, 100 µM
[12] = Metabolic stability in human plasma assessed as half life at 100 uM measured upto 24 hrs by LC-MS/MS analysis; type: ADME, cell-free; settings: 24 h, 100 µM
[13] = Plasma protein binding in human assessed as bound fraction at 1 uM by LC-MS/MS analysis; type: ADME, cell-free
[14] = tested on: Rattus norvegicus; experiment: Effect on emotional-affective response in spinal nerve ligation neuropathic pain rat model assessed as reduction in ultrasonic vocalizations at 3 mg/kg, ip measured at 1 hr by preamplifier based analysis; type: functional, organism-based
[15] = tested on: Rattus norvegicus; experiment: Effect on emotional-affective response in spinal nerve ligation neuropathic pain rat model assessed as reduction in audible vocalizations at 3 mg/kg, ip measured at 1 hr by preamplifier based analysis; type: functional, organism-based

Compound	Ki [1]	Ki [2]	Ki [3]	further results
COc1cccc(CC(NC(=O)CNCc2ccccc2)C(=O)O)c1I (stereo not given)	> 10 µM	> 10 µM	> 10 µM	
Cn1c(=O)c2c(ncn2C)n(C)c1=O				Pe [4]: 28.1 10^-3cm/min
Cc1cccc(CC2NC(=O)CN(Cc3ccccc3)C2=O)c1I (stereo not given)	> 10 µM	> 10 µM	> 10 µM	
CNCC(=O)NC(Cc1cccc(OC)c1I)C(=O)OC (stereo not given)	> 10 µM	> 10 µM	> 10 µM	
COC(=O)C(Cc1cccc(OC)c1I)NC(=O)CN(Cc1ccccc1)C(C)=O (stereo not given)	> 10 µM	> 10 µM	> 10 µM	
COC(=O)C(Cc1cccc(OC)c1I)NC(=O)CCNCc1ccccc1 (stereo not given)	> 10 µM	1.23 µM	> 10 µM	Ratio Ki [5]: > 8; Ratio Ki [6]: > 8
COc1cccc(CC2NC(=O)CNC2=O)c1I (stereo not given)	> 10 µM	> 10 µM	> 10 µM	
COC(=O)C(Cc1cccc(OC)c1I)NC(=O)CN(C)Cc1ccccc1 (stereo not given)	> 10 µM	0.256 µM	> 10 µM	Ratio Ki [5]: > 40; Ratio Ki [6]: > 40
COc1cccc(CC(NC(=O)CNCc2ccccc2)C(=O)OC(C)C)c1I (stereo not given)	> 10 µM	1.44 µM	> 10 µM	Ratio Ki [5]: > 7; Ratio Ki [6]: > 7
COc1cccc(CC2NC(=O)CN(C)C2=O)c1I (stereo not given)	> 10 µM	> 10 µM	> 10 µM	
COC(=O)C(Cc1cccc(OC)c1I)NC(=O)CNCc1cccnc1 (stereo not given)	> 10 µM	> 10 µM	> 10 µM	
COC(=O)C(Cc1cccc(OC)c1I)NC(=O)CN (stereo not given)	> 10 µM	> 10 µM	> 10 µM	
COC(=O)C(Cc1cccc(OC)c1C)NC(=O)CNCc1ccccc1 (stereo not given)	> 10 µM	0.19 µM	> 10 µM	Intrinsic clearance [7]: 1112 µL/min/mg; half-life at 100 µM [8]: < 1 min; Ratio Ki [5]: > 53; Pe [4]: 6.25 10^-3cm/min; PPB [9]: 94.28%; half-life at 100 µM [10]: < 1 min; t1/2 [11]: 259.26 min; t1/2 [12]: 151.69 min; PPB [13]: 89.36%; Ratio Ki [6]: > 53
COC(=O)C(Cc1ccccc1I)NC(=O)CN(Cc1ccccc1)C(=O)OC(C)(C)C (stereo not given) (Boc-[Nphe]-[ξPhe(2-I)]-OMe)	4.38 µM	4.18 µM	> 10 µM	
O=C1CN(Cc2ccccc2)C(=O)C(Cc2cccc(O)c2I)N1 (stereo not given)	> 10 µM	> 10 µM	> 10 µM	
COc1cccc(CC2NC(=O)CN(CCCc3ccccc3)C2=O)c1I (stereo not given)	> 10 µM	7 µM	> 10 µM	Ratio Ki [5]: > 1.4; Ratio Ki [6]: > 1.4
COc1cccc(CC2NC(=O)CN(Cc3ccccc3)C2=O)c1 (stereo not given)	> 10 µM	> 10 µM	> 10 µM	
NCC1(CC(=O)O)CCCCC1				Activity [14]: Active; Activity [15]: Active
COc1cccc(CC2NC(=O)CN(Cc3cccnc3)C2=O)c1I (stereo not given)	> 10 µM	> 10 µM	> 10 µM	
COC(=O)C(Cc1cccc(OC)c1I)NC(=O)CN(Cc1ccccc1)C(=O)OC(C)(C)C (stereo not given)	> 10 µM	> 10 µM	> 10 µM	
